In patent US20180371021A1, “PEPTIDOMIMETIC MACROCYCLES AND USES THEREOF” (Aileron Therapeutics, Inc., priority 2017, published 2018):
Where “and” joins values, the source holds several entries; their conditions need not be identical. Equal entries are not always repeated. Entries after “also recorded” stand apart in the source; their conditions may differ.

Legend:
[1] = tested on: A549 xenograft; assay: A549 xenograft model, AP1 and palbociclib; format: in vivo, mice
From the text: The arrows indicate spontaneous tumor shrinkage in vehicle controls. The arrows with * indicate poor growth of tumors late in the study.

[2] = tested on: peripheral T-Cell Lymphoma (PTCL); assay: Phase 2a clinical trial with AP1 in peripheral T-cell lymphoma; format: in vivo, human
Description: Based on the results of the dose-escalation study and the complete response observed in a patient with PTCL, a Phase 2a clinical trial was conducted in patients with PTCL.

[3] = tested on: advanced solid tumors or lymphomas expressing WT p53; assay: Phase 1 dose-escalation trial of AP1: anti-tumor activity (RECIST / IWG); format: in vivo, human
Description: Anti-tumor activity was measured using Response Evaluation Criteria in Solid Tumors (RECIST) criteria for patients with solid tumors, and 2015 International Working Group (IWG) criteria for patients with lymphomas. The RECIST and IWG criteria enabled the objective evaluation of whether a tumor had progressed, stabilized, or decreased in size. Anti-tumor effects were also determined through physical examinations or clinically validated blood or serum tumor markers.
Anti-tumor activity was measured using RECIST criteria for patients with solid tumors and the IWG criteria for patients with lymphomas to objectively evaluate whether a tumor progressed, stabilized, or shrunk.
The percent change in tumor volume for each evaluable patient (i.e., having measurable disease by CT or PET-CT scan) is plotted from the highest to lowest value, or low to high response, and each bar of the histogram is colored by the best overall response measured for that patient per RECIST or IWG criteria.

[4] = tested on: MIC-1; assay: Phase 1 dose-escalation trial of AP1: plasma MIC-1 biomarker; format: in vivo, human; settings: plasma MIC-1 after end of AP1 infusion
Description: Depending on the sample type, the PD biomarkers included measures of MDMX, MDM2, p21, p53, apoptosis, macrophage inhibitory cytokine 1, or MIC-1.
In the Phase 1 dose-escalation study, plasma MIC-1 levels were measured at several time points after initial infusion.

[5] = Phase 1 dose-escalation trial of AP1: pharmacokinetic profile; format: in vivo, human; settings: patients, I.V. infusion
From the text: Data were collected at different time points after the start of infusion (SOI) and the end of infusion (EOI).

[6] = tested on: SJSA-1 osteosarcoma xenograft; assay: SJSA-1 osteosarcoma xenograft model, AP1 and palbociclib; format: in vivo, mice; settings: AP1 20 mg/kg qwkx4, palbociclib 75 mg/kg qdx22
Description: (§1) The group was not euthanized, and the mice were allowed to recover. […] Animals were monitored individually. […] Responders were followed for a longer period of time. When the endpoint was reached, the animals were euthanized. […] An aqueous phosphate-buffered saline solution or sodium lactate (50 mM, pH 4.0) solution was used as the vehicle.

[7] = tested on: Acute Myeloid Leukemia (AML) or Myelodysplastic Syndrome (MDS), expressing WT p53; assay: Clinical study of AP1 alone or with cytarabine in AML or MDS; format: in vivo, human; settings: evaluable patients with bone marrow biopsies before and after dosing
[8] = tested on: MCF-7.1 human breast carcinoma xenograft; assay: MCF-7.1 human breast carcinoma xenograft model, AP1 and palbociclib; format: in vivo, mice; settings: AP1 20 mg/kg qwkx4, palbociclib 75 mg/kg qdx22
Description: as §1, with “Female athymic nude mice were provided with drinking water with 10 μg/mL with 17 beta estradiol supplementation 3 days prior to cell implantation and for the duration of the study. […] The mice were between 8-12 weeks of age at the beginning of the study. […] The” for “The”

[9] = tested on: human CD45 leukemic cells; assay: Survival in an in vivo xenotransplantation model; design: species or system mice; settings: for Long term survival, mice still alive: 130 days post start of treatment
From the text: The median survival for group 1 and group 2 was 34 days and 83 days, respectively (p<0.0001).

[10] = Phase 1 dose-escalation trial of AP1: safety and tolerability; format: in vivo, human
From the text: 71 patients were enrolled in the dose-escalation trial. The trial used a “3+3” dose-escalation design.
Starting with dose level 4, patients who had cancers associated with HPV were excluded from enrollment because HPV is known to destroy WT p53.
FIG. 2 illustrates the dosing regiments (DRs) used in the “3+3” dose escalation trial.
Eight patients experienced dose reductions, including two patients who had been on study treatment for over 1 year, and another patient who had been on study treatment for 11 months. […] Both events were Grade 3 hypotension and were at the 3.1 mg/kg and the 4.4 mg/kg once-weekly dosing levels. […] Five patients discontinued treatment with AP1 due to these events.

[11] = tested on: MCF-7 cells; assay: MCF-7 cell proliferation (WST-1 / CyQUANT), AP1 and CDK4/CDK6 inhibitors; format: cell-based, human; settings: sequential treatment, 24 h pre-treatment
Description: The WST-1 variant of the MTT assay was used to measure cell viability. WST-1 is a cell-impermeable, sulfonated tetrazolium salt that can be used to examine cell viability without killing the cells. […] All media were supplemented with 10% (v/v) fetal calf serum, 100 units of penicillin, and 100 μg/mL of streptomycin at 37° C. and 5% CO2. Prior to dosing, MCF-7 cells were switched to serum-free medium and grown at 37° C. overnight. One day prior to assaying, the cells were trypsinized, counted, and seeded at pre-determined densities in 96-well plates as follows: MCF-7, 5000 cells/well/200 μL; MOLT-3, 30,000 cells/well/200 μL.
The concentration of ribociclib was kept constant.
The concentration of abemaciclib was kept constant.
Various MCF-7 cell numbers were plated and evaluated 3-7 days after plating to determine the optimal number of cells to be plated and to determine the treatment duration. […] MCF-7 cells were evaluated for viability using the WST-1 assay or the CyQUANT method 3-7 days or 120 h after beginning treatment.
The cells were evaluated for viability using the CyQUANT method after beginning the simultaneous treatments.
The cells were evaluated for viability using a WST-1 assay or MTT assay 3-7 days after beginning the treatments.
The data are expressed as log(CI).

[12] = d22, calculated using vehicle median volumes on d0 and d22
[13] = three consecutive measurements > 150% of d1 volume

CC(=O)N[C@@H](CC(C)C)C(=O)N[C@H](C(=O)N[C@@H](Cc1ccccc1)C(=O)N[C@]1(C)CCCCCCC=CCCC[C@@](C)(C(=O)N[C@@H](C)C(=O)N[C@@H](C)C(=O)N[C@@H](C)C(=O)N[C@@H](C)C(=O)N[C@@H](C)C(=O)N[C@H](C)C(N)=O)NC(=O)[C@H](CC(C)C)NC(=O)[C@H](CCC(N)=O)NC(=O)[C@H](C)NC(=O)[C@H](Cc2c[nH]c3ccccc23)NC(=O)[C@H](Cc2ccc(O)cc2)NC(=O)[C@H](CCC(=O)O)NC1=O)[C@@H](C)O [AP1]
Median time to tumor volume > 500 mm^3 ([1]; A549 xenograft, AP1 20 mg/kg qwkx4): 25 days | Median tumor volume (mm^3) D1 ([1]; D1 (start of dosing), A549 xenograft, nude mice, AP1 20 mg/kg qwkx4, palbociclib 75 mg/kg qdx22): 126 mm^3 | Median tumor volume (mm^3) D22 ([1]; D22, A549 xenograft, nude mice, AP1 20 mg/kg qwkx4, palbociclib 75 mg/kg qdx22): 405 mm^3 | % TGI (±SEM) on d22 (end of dosing) ([1]; d22, calculated using vehicle median volumes on d0 and d22, AP1 20 mg/kg qwkx4, palbociclib 75 mg/kg qdx22): 42 (7) % | Animals with disease progression ([1]; three consecutive measurements > 150% of d1 volume, AP1 20 mg/kg qwkx4, palbociclib 75 mg/kg qdx22): 10/10 | animals have reached endpoint ([1]; tumor volume > 500 mm^3, A549 xenograft, AP1 20 mg/kg qwkx4, palbociclib 75 mg/kg qdx22): 8/10 animals | response of the first patient enrolled in the Phase 2 study in PTCL ([2]; after 2 cycles of treatment): partial response | Best overall response ([2]; seven PTCL patients on AP1 therapy, one line per patient (patient 1 from dose escalation)): ODP | Days on treatment ([2]; seven PTCL patients on AP1 therapy, one line per patient (patient 1 from dose escalation), Dose escalation study): 487 days | Days on treatment ([2]; seven PTCL patients on AP1 therapy, one line per patient (patient 1 from dose escalation), Phase 2a study): 32 days and 1 days and 122 days and 134 days and 66 days and 53 days | responses with stabilization of tumor size (SDs) ([3]; 57 evaluable patients): 21 | stable diseased patients that exhibited tumor shrinkage ([3]; 57 evaluable patients): 7 | patient scans of the two CR patients ([3]; PTCL patient after six cycles, MCC patient after further treatment): the lymph node returned to its normal size; also recorded: showed no trace of cancer in the patient | max time a patient received AP1 ([3]; one patient): 613 days | doses achieving a maximal 24 hr MIC-1 increase above baseline [4]: ≥ 2.1 mg/kg | maximum drug serum concentrations observed (Cmax) ([5]; all dose levels): dose-related increase | half-lives ([5]; higher dose levels): five and seven | Median tumor volume (mm^3) D1 ([6]; D1 (start of dosing), SJSA-1 xenograft, nude mice): 117 mm^3 | Median tumor volume (mm^3) D22 ([6]; D22, SJSA-1 xenograft, nude mice): 2150 mm^3 | Median time to tumor volume > 1000 mm^3 ([6]; SJSA-1 xenograft): 16 days | Median time to tumor volume > 2000 mm^3 ([6]; SJSA-1 xenograft): 21 days | % TGI (±SEM) on d22 (end of dosing) [6, 12]: 17 (6) % | Animals with disease progression [6, 13]: 10/10 | patients who demonstrated stabilization of their disease [7]: 3 | Median tumor volume (mm^3) D1 ([8]; D1 (start of dosing), MCF-7.1 xenograft, nude mice): 126 mm^3 | Median tumor volume (mm^3) D22 ([8]; D22, MCF-7.1 xenograft, nude mice): 473 mm^3 | Median time to tumor volume > 500 mm^3 ([8]; MCF-7.1 xenograft): 22 days | Median time to tumor volume > 1000 mm^3 ([8]; MCF-7.1 xenograft): 35 days | % TGI (±SEM) on d22 (end of dosing) [8, 12]: 30 (9) % | animals have reached endpoint ([8]; endpoint tumor volume > 1000 mm^3, MCF-7.1 xenograft): 10/10 animals | Animals with disease progression [8, 13]: 10/10 | Long term survival, mice still alive ([9]; group 2): 22% | Long term survival, mice still alive ([9]; group 3): 60% | median survival ([9]; group 2 (group 1: 34 days), p<0.0001): 83 days | overall survival ([9]; vs vehicle): doubled the overall survival | dose limiting toxicity (DLT) ([10]; 3.1 mg/kg once weekly dosing): One dose limiting toxicity (DLT) of Grade 3 fatigue | dose limiting toxicity (DLT) ([10]; […] once weekly): four DLTs (Grade 3 elevated alkaline phosphatase, Grade 3 hypotension, Grade 3 anemia, Grade 4 neutropenia) | patients with transient decreases in lymphocytes post-dosing and primarily Grade 1 and 2 abnormalities ([10]; full recovery within a few days): approximately 50% | MTD ([10]; human, in vivo, iv, dosed once a week by I.V. administration, patients): 3.1 mg/kg | tolerability as considered by the investigators ([10]; patients, dose escalation trial): generally well tolerated | most frequently reported drug-related events ([10]; reported by ≥10% of the patients): nausea, fatigue, vomiting, decreased appetite, anemia, headache, and constipation | MCF-7 cell growth [11]: suppressed MCF-7 cell growth with or without treatment with palbociclib
